By IC50 is commonly meant the concentration that gives 50% inhibition. A high value points to weaker potency in that assay. A word on the Inhibition: it is the share of the control response that was lost under treatment. Read a high Inhibition as strong suppression.

15 compounds from ChEMBL document CHEMBL4303087, “Broad anti-coronaviral activity of FDA approved drugs against SARS-CoV-2 in vitro and SARS-CoV in vivo” (2020) can be followed below.

Series [1] relates to SARS-CoV-2. Nature of the series: microbe, parasite or virus in culture. The class given is functional, organism-based, Chlorocebus sabaeus, Vero C1008.
Series [2] relates to SARS-CoV-2. The experiment in a line: microbe, parasite or virus in culture. The class given is functional, organism-based, Chlorocebus sabaeus, Vero C1008. The source holds these as a separate data set.
The test system of the next series is Vero C1008. To be noted: chlorocebus sabaeus, vero c1008, 72 h.
A short description of series [3]: in vitro. To be noted: monkey, Vero E6 cells, Selectivity index.
Series [4] can be described thus: in vitro. To be noted: monkey, Vero E6 cells, Selectivity index. This is another data set of the same source.
Series [5] concerns SARS-CoV-2. Nature of the series: Reduction of viral mRNA (RdRp and N) in SARS-CoV-2 infected Vero E6 cells (at MOI 0.1) after 24 hrs. The class given is functional, organism-based. To be noted: Chlorocebus sabaeus; Vero C1008.
The subject of the next series is SARS-CoV. The experiment in a line: Reduction of SARS spike protein-mediated cell fusion using BlaM pseudovirus assay system in BSC1 cells. The class given is functional, Chlorocebus aethiops, BSC-1.
For series [6], the system named is SARS-CoV-2. Nature of the series: Reduction of SARS-CoV-2 infection by time of addition assay, with 50uM hydroxychloroquine administered at -2hrs, 0 hrs and 2hrs post-infection. The class given is functional, organism-based. To be noted: Chlorocebus sabaeus, Vero C1008.
The mark [7] stands for this setting: Severe acute respiratory syndrome coronavirus 2, Vero C1008, 72 h.

Each structure is given as a SMILES string. “And” between values parts separate entries of the source, which are not always exact repeats. Identical values can stand only once. Counter-ions that a name gives are not always drawn. The source made the active and inactive calls. The rule behind the calls is not given here.

Consider `O=C1NCN(c2ccccc2)C12CCN(CCCC(c1ccc(F)cc1)c1ccc(F)cc1)CC2`, for which the IC50 is 3.16 µM in the series with SARS-CoV-2 [1] (setting [7]) and 5.32 µM with SARS-CoV-2 [2] (setting [7]). Moreover, the CC50 in the series with Vero C1008 came to 30.3 µM. The selectivity ratio was determined as 9.61 in “in vitro [3]” and 5.71 in the series “in vitro [4]”.
`CCN(CC)Cc1cc(Nc2ccnc3cc(Cl)ccc23)ccc1O` [AMODIAQUINE HYDROCHLORIDE]: the half-maximal inhibitory concentration (IC50) stood at 2.59 µM in the series with SARS-CoV-2 [1] (setting [7]), 2.36 µM in the series on SARS-CoV-2 [1] (vero c1008), 4.94 µM with SARS-CoV-2 [2] (setting [7]) and 5.64 µM in the series with SARS-CoV-2 [2] (vero c1008). In the series on Vero C1008 (72 h), the CC50 was 34.4 µM and > 38.6 µM. The results for the selectivity ratio in the series “in vitro [3]” and in the series “in vitro [4]” were 13.3 and 6.97, respectively.
The compound `CC/C(=C(\c1ccccc1)c1ccc(OCCN(C)C)cc1)c1ccccc1` [TAMOXIFEN CITRATE] came in with a CC50 with Vero C1008 of 38 µM.
Turning to `CCN(CC)CCOc1ccc(C(O)(Cc2ccc(Cl)cc2)c2ccc(C)cc2)cc1` (stereo not drawn) [TRIPARANOL], the IC50 in the series with SARS-CoV-2 [1] (setting [7]) was found to be 4.68 µM; with SARS-CoV-2 [2] (setting [7]) it was 6.41 µM. Also, in the series with Vero C1008, the CC50 was determined as 21.2 µM. For the same compound, the selectivity ratio in “in vitro [3]” was 4.53; in “in vitro [4]”, 3.31.
Consider `CCN(CC)CCCC(C)Nc1ccnc2cc(Cl)ccc12.O=P(O)(O)O.O=P(O)(O)O` (stereo not drawn) [CHLOROQUINE PHOSPHATE], for which the IC50 in the series with SARS-CoV-2 [1] (setting [7]) came to 42 µM; in the series with SARS-CoV-2 [2] (setting [7]), 46.8 µM. Moreover, the result in the series on SARS-CoV-2 [5] was Active. This compound also returned an Inhibition in the series on SARS-CoV of over 90%.
Take `CN(C)CCOc1ccc(/C(=C(/CCCl)c2ccccc2)c2ccccc2)cc1` [TOREMIFENE CITRATE]: the results for the IC50 in the series on SARS-CoV-2 [1] (setting [7]) and with SARS-CoV-2 [2] (setting [7]) were 4.77 µM and 11.3 µM, respectively. For the same compound, the CC50 in the series on Vero C1008 amounted to 20.5 µM. In addition, the values for the selectivity ratio in “in vitro [3]” and in “in vitro [4]” were 4.3 and 1.81, respectively.
In turn, `Nc1ccn([C@@H]2O[C@H](CO)[C@@H](O)C2(F)F)c(=O)n1` [GEMCITABINE HYDROCHLORIDE] displayed a CC50 in the series with Vero C1008 of 23.2 µM.
Same read-out and setting: the same measure for `Cc1ccc(NC(=O)c2ccc(CN3CCN(C)CC3)cc2)cc1Nc1nccc(-c2cccnc2)n1` [IMATINIB MESYLATE]: over 30.9 µM.
Same read-out and setting: the same measure for `CC[C@H]1CN2CCc3cc(OC)c(OC)cc3[C@@H]2C[C@@H]1C[C@H]1NCCc2cc(OC)c(OC)cc21` [EMETINE DIHYDROCHLORIDE HYDRATE]: under 0.39 µM.
For the compound `CN(C)CCCN1c2ccccc2Sc2ccc(Cl)cc21.Cl` [CHLORPROMAZINE HYDROCHLORIDE], the IC50 with SARS-CoV-2 [1] (setting [7]) is 3.14 µM; with SARS-CoV-2 [2] (setting [7]), 4.03 µM. In the series on SARS-CoV, the Inhibition is reported as over 90%. Also, the CC50 in the series on Vero C1008 turned out to be 11.9 µM.
Take `CCSc1ccc2c(c1)N(CCCN1CCN(C)CC1)c1ccccc1S2` [THIETHYLPERAZINE MALEATE]: the concentration for half-maximal inhibition (IC50) with SARS-CoV-2 [1] (setting [7]) was 7.09 µM; in the series with SARS-CoV-2 [2] (setting [7]) it was 8.02 µM. In the series on Vero C1008, this compound yielded a CC50 of 18.4 µM. The selectivity ratio in “in vitro [3]” stood at 2.59; in “in vitro [4]”, 2.29.
As for `CCN(CCO)CCCC(C)Nc1ccnc2cc(Cl)ccc12` (stereo not drawn) [HYDROXYCHLOROQUINE SULFATE], the IC50 in the series on SARS-CoV-2 [1] (setting [7]) amounted to 9.21 µM; in the series with SARS-CoV-2 [2] (setting [7]), 11.2 µM. Moreover, the result with SARS-CoV-2 [5], in the series with SARS-CoV-2 [6] (time 0.0 hr), with SARS-CoV-2 [6] (time 2.0 hr) and with SARS-CoV-2 [6] (time -2.0 hr) was Active. In the series on Vero C1008, the CC50 was over 50 µM. Further, the selectivity ratio in “in vitro [3]” is over 5.43; in “in vitro [4]”, over 4.48.
Regarding `CC(CN1c2ccccc2Sc2ccccc21)N(C)C` (stereo not drawn) [PROMETHAZINE HYDROCHLORIDE], the figures for the IC50 with SARS-CoV-2 [1] (setting [7]) and in the series on SARS-CoV-2 [2] (setting [7]) were 9.21 µM and 10.4 µM, respectively. This compound also showed a CC50 in the series on Vero C1008 of over 42.6 µM. In addition, the selectivity ratio in “in vitro [3]” is over 4.62; in “in vitro [4]” it was over 4.08.
With `CC(C)N1CCN(c2ccc(OCC3COC(Cn4cncn4)(c4ccc(Cl)cc4Cl)O3)cc2)CC1` (stereo not drawn) [TERCONAZOLE], the IC50 with SARS-CoV-2 [1] (setting [7]) is 11.9 µM; in the series with SARS-CoV-2 [2] (setting [7]), 16.1 µM. In the series with Vero C1008, this compound came in with a CC50 of 41.5 µM. For the same compound, the results for the selectivity ratio in “in vitro [3]” and in “in vitro [4]” were 3.48 and 2.57, respectively.
The corresponding values for `OC(c1cc(C(F)(F)F)nc2c(C(F)(F)F)cccc12)C1CCCCN1` (stereo not drawn) [MEFLOQUINE HYDROCHLORIDE] are 7.11 µM, 8.06 µM, 18.5 µM, 2.61 and 2.3.
